Reference: patent US20240218022A1, “ANTI-VISTA MACROCYCLIC PEPTIDES AND COMPOSITIONS” (BRISTOL-MYERS SQUIBB COMPANY, priority 2022, published 2024)
Positions of bridges follow the written chain, without caps; N, C: chain ends. Non-standard residues stand in square brackets, D forms with d. Residues, ends and D or L forms follow the SMILES beside them. 2Nal = N[C@@H](Cc1ccc2ccccc2c1)C(=O)O; Ahp(2) = CCCCC[C@H](N)C(=O)O; NMeNle = CCCC[C@H](NC)C(=O)O; NHexGly = CCCCCCNCC(=O)O; Nle = CCCC[C@H](N)C(=O)O; Orn = NCCC[C@H](N)C(=O)O

Each compound was assayed against T1, mouse VISTA (mVISTA) (Mus musculus, UniProt Q9D659) (assay: Cell-Based Binding High-Content Assay For mVISTA (HC CBA mVISTA)). Conditions: 293T cells expressing mouse VISTA; competition with biotinylated peptide (2 nM); read-out: HC CBA mVISTA IC50.
T1 construct: expressed in transfected cells; host or cells: Human embryonic kidney 293T cells
T1 sequence (Q9D659 33-308): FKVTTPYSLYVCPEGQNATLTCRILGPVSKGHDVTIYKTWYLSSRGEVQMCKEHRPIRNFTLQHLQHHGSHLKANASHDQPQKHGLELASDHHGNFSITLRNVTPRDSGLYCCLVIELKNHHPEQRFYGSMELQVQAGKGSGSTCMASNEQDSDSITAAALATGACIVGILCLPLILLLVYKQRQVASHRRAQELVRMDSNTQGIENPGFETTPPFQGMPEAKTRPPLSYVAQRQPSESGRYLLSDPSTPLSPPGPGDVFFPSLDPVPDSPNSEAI
Outline: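 Competition of compound with a biotinylated peptide (final 2 nM, 30 min at RT) for binding to mVISTA on 293T cells, run under no-wash or wash (1 h compound preincubation then removal) formats. Readout by Alexa 647–streptavidin imaging on a high-content platform; four-parameter logistic fit gave IC50.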

| IC50 [nM] | Structure (SMILES) |
| --- | --- |
| 12.7 | CCCCCCN1CC(=O)N[C@@H](Cc2ccc(O)cc2)C(=O)N[C@@H](CCCC)C(=O)N[C@@H](CC(=O)O)C(=O)N[C@@H](CCCNC(=N)N)C(=O)N[C@@H](CC(C)C)C(=O)N[C@@H](CCCCC)C(=O)N2CCC[C@H]2C(=O)N[C@@H](C(C)C)C(=O)N[C@@H](CC(=O)O)C(=O)N[C@H](C(=O)N[C@@H](CC(=O)O)C(N)=O)CSCC(=O)N[C@@H](Cc2ccccc2)C(=O)N[C@@H](Cc2ccc(O)cc2)C(=O)N[C@@H](CC(=O)O)C1=O [Example 1001] ({CH2CO}-FYD[NHexGly]Y[Nle]DRL[Ahp(2)]PVDCD-NH2; thioether N-14) |
| 14.9 | CCCCCCN1CC(=O)N[C@@H](Cc2ccc(O)cc2)C(=O)N[C@@H](CCCCC)C(=O)N[C@@H](CC(=O)O)C(=O)N[C@@H](CCCNC(=N)N)C(=O)N[C@@H](CC(C)C)C(=O)N[C@@H](CCCCC)C(=O)N2CCC[C@H]2C(=O)N[C@@H](C(C)C)C(=O)N[C@@H](CC(=O)O)C(=O)N[C@H](C(=O)N[C@H](CC(=O)O)C(N)=O)CSCC(=O)N[C@@H](Cc2ccccc2)C(=O)N[C@@H](Cc2ccc(O)cc2)C(=O)N[C@@H](CC(=O)O)C1=O [Example 1002] ({CH2CO}-FYD[NHexGly]Y[Ahp(2)]DRL[Ahp(2)]PVDC[dD]-NH2; thioether N-14) |
| 18.8 | CCCCCCN1CC(=O)N[C@@H](Cc2ccc(O)cc2)C(=O)N[C@@H](CCCC)C(=O)N[C@@H](CC(=O)O)C(=O)N[C@@H](CCCNC(=N)N)C(=O)N[C@@H](CC(C)C)C(=O)N[C@@H](CCCCC)C(=O)N2CCC[C@H]2C(=O)N[C@@H](C(C)C)C(=O)N[C@@H](CC(=O)O)C(=O)N[C@H](C(=O)N[C@H](CC(=O)O)C(N)=O)CSCC(=O)N[C@@H](Cc2ccccc2)C(=O)N[C@@H](Cc2ccc(O)cc2)C(=O)N[C@@H](CC(=O)O)C1=O [Example 1003] ({CH2CO}-FYD[NHexGly]Y[Nle]DRL[Ahp(2)]PVDC[dD]-NH2; thioether N-14) |
| 12.9 | CCCCCCN1CC(=O)N[C@@H](Cc2ccc(O)cc2)C(=O)N[C@@H](CCCCC)C(=O)N[C@@H](CC(=O)O)C(=O)N[C@@H](CCCNC(=N)N)C(=O)N[C@@H](CC(C)C)C(=O)N[C@@H](CCCCC)C(=O)N2CCC[C@H]2C(=O)N[C@@H](C(C)C)C(=O)N[C@@H](CC(=O)O)C(=O)N[C@H](C(=O)N[C@@H](CCC(=O)O)C(N)=O)CSCC(=O)N[C@@H](Cc2ccccc2)C(=O)N[C@@H](Cc2ccc(O)cc2)C(=O)N[C@@H](CC(=O)O)C1=O [Example 1004] ({CH2CO}-FYD[NHexGly]Y[Ahp(2)]DRL[Ahp(2)]PVDCE-NH2; thioether N-14) |
| 12.7 | CCCCCCN1CC(=O)N[C@@H](Cc2ccc(O)cc2)C(=O)N[C@@H](CCCC)C(=O)N[C@@H](CC(=O)O)C(=O)N[C@@H](CCCNC(=N)N)C(=O)N[C@@H](CC(C)C)C(=O)N[C@@H](CCCCC)C(=O)N2CCC[C@H]2C(=O)N[C@@H](C(C)C)C(=O)N[C@@H](CC(=O)O)C(=O)N[C@H](C(=O)N[C@@H](CCC(=O)O)C(N)=O)CSCC(=O)N[C@@H](Cc2ccccc2)C(=O)N[C@@H](Cc2ccc(O)cc2)C(=O)N[C@@H](CC(=O)O)C1=O [Example 1005] ({CH2CO}-FYD[NHexGly]Y[Nle]DRL[Ahp(2)]PVDCE-NH2; thioether N-14) |

Same assay, conditions: cell-based binding high-content assay, mVISTA; the 16th table; read-out: HC CBA mVISTA IC50

| IC50 [nM] | Structure (SMILES) |
| --- | --- |
| 17.5 | CCCCCCN1CC(=O)N[C@@H](Cc2ccc(O)cc2)C(=O)N[C@@H](CCCC)C(=O)N[C@@H](CC(=O)O)C(=O)N[C@@H](CCCNC(=N)N)C(=O)N[C@@H](CC(C)C)C(=O)N[C@@H](CCCCC)C(=O)N2CCC[C@H]2C(=O)N[C@@H](C(C)C)C(=O)N[C@@H](CC(=O)O)C(=O)N[C@H](C(=O)N[C@@H](CO)C(N)=O)CSCC(=O)N[C@@H](Cc2ccc3ccccc3c2)C(=O)N[C@@H](Cc2ccc(O)cc2)C(=O)N[C@@H](CC(=O)O)C1=O [Ex 1317] ({CH2CO}-[2Nal]YD[NHexGly]Y[Nle]DRL[Ahp(2)]PVDCS-NH2; thioether N-14) |
| 11.9 | CCCCCCN1CC(=O)N[C@@H](Cc2ccc(O)cc2)C(=O)N[C@@H](CCCC)C(=O)N[C@@H](CC(=O)O)C(=O)N[C@@H](CCCNC(=N)N)C(=O)N(C)[C@@H](CCCC)C(=O)N[C@@H](CCCCC)C(=O)N2CCC[C@H]2C(=O)N[C@@H](C(C)C)C(=O)N[C@@H](CC(=O)O)C(=O)N[C@H](C(=O)N[C@@H](CO)C(N)=O)CSCC(=O)N[C@@H](Cc2ccc3ccccc3c2)C(=O)N[C@@H](Cc2ccc(O)cc2)C(=O)N[C@@H](CC(=O)O)C1=O [Ex 1318] ({CH2CO}-[2Nal]YD[NHexGly]Y[Nle]DR[NMeNle][Ahp(2)]PVDCS-NH2; thioether N-14) |
| 13.7 | CCCCCCN1CC(=O)N[C@@H](Cc2ccc(O)cc2)C(=O)N[C@@H](CCCC)C(=O)N[C@@H](CC(=O)O)C(=O)N[C@@H](CCCN)C(=O)N[C@@H](CC(C)C)C(=O)N[C@@H](CCCCC)C(=O)N2CCC[C@H]2C(=O)N[C@@H](C(C)C)C(=O)N[C@@H](CC(=O)O)C(=O)N[C@H](C(=O)N[C@@H](CO)C(N)=O)CSCC(=O)N[C@@H](Cc2ccc3ccccc3c2)C(=O)N[C@@H](Cc2ccc(O)cc2)C(=O)N[C@@H](CC(=O)O)C1=O [Ex 1319] ({CH2CO}-[2Nal]YD[NHexGly]Y[Nle]D[Orn]L[Ahp(2)]PVDCS-NH2; thioether N-14) |
| 21.3 | CCCCCCN1CC(=O)N[C@@H](Cc2ccc(O)cc2)C(=O)N[C@@H](CCCC)C(=O)N[C@@H](CC(=O)O)C(=O)N[C@@H](CCCN)C(=O)N(C)[C@@H](CCCC)C(=O)N[C@@H](CCCCC)C(=O)N2CCC[C@H]2C(=O)N[C@@H](C(C)C)C(=O)N[C@@H](CC(=O)O)C(=O)N[C@H](C(=O)N[C@@H](CO)C(N)=O)CSCC(=O)N[C@@H](Cc2ccc3ccccc3c2)C(=O)N[C@@H](Cc2ccc(O)cc2)C(=O)N[C@@H](CC(=O)O)C1=O [Ex 1320] ({CH2CO}-[2Nal]YD[NHexGly]Y[Nle]D[Orn][NMeNle][Ahp(2)]PVDCS-NH2; thioether N-14) |
| 15.9 | CCCCCCN1CC(=O)N[C@@H](Cc2ccc(O)cc2)C(=O)N[C@@H](CCCC)C(=O)N[C@@H](CC(N)=O)C(=O)N[C@@H](CCCNC(=N)N)C(=O)N[C@@H](CC(C)C)C(=O)N[C@@H](CCCCC)C(=O)N2CCC[C@H]2C(=O)N[C@@H](C(C)C)C(=O)N[C@@H](CC(=O)O)C(=O)N[C@H](C(=O)N[C@@H](Cc2c[nH]c3ccccc23)C(N)=O)CSCC(=O)N[C@@H](Cc2ccc3ccccc3c2)C(=O)N[C@@H](Cc2ccc(O)cc2)C(=O)N[C@@H](CC(=O)O)C1=O [Ex 1321] ({CH2CO}-[2Nal]YD[NHexGly]Y[Nle]NRL[Ahp(2)]PVDCW-NH2; thioether N-14) |
| 5.5 | CCCCCCN1CC(=O)N[C@@H](Cc2ccc(O)cc2)C(=O)N[C@@H](C(C)C)C(=O)NCC(=O)N[C@@H](CCCNC(=N)N)C(=O)N[C@@H](CC(C)C)C(=O)N[C@@H](CCCCC)C(=O)N2CCC[C@H]2C(=O)N[C@@H](C(C)C)C(=O)N[C@@H](CC(=O)O)C(=O)N[C@H](C(=O)N[C@@H](Cc2ccc(O)cc2)C(N)=O)CSCC(=O)N[C@@H](Cc2ccc3ccccc3c2)C(=O)N[C@@H](Cc2ccc(O)cc2)C(=O)N[C@@H](CC(=O)O)C1=O [Ex 1322] ({CH2CO}-[2Nal]YD[NHexGly]YVGRL[Ahp(2)]PVDCY-NH2; thioether N-14) |
| 13.5 | CCCCCCN1CC(=O)N[C@@H](Cc2ccc(O)cc2)C(=O)N[C@@H](CCCC)C(=O)N[C@@H](CC(N)=O)C(=O)N[C@@H](CCCNC(=N)N)C(=O)N[C@@H](CC(C)C)C(=O)N[C@@H](CCCCC)C(=O)N2CCC[C@H]2C(=O)N[C@@H](C(C)C)C(=O)N[C@@H](CC(=O)O)C(=O)N[C@H](C(=O)N[C@@H](Cc2ccc(O)cc2)C(N)=O)CSCC(=O)N[C@@H](Cc2ccc3ccccc3c2)C(=O)N[C@@H](Cc2ccc(O)cc2)C(=O)N[C@@H](CC(=O)O)C1=O [Ex 1323] ({CH2CO}-[2Nal]YD[NHexGly]Y[Nle]NRL[Ahp(2)]PVDCY-NH2; thioether N-14) |
